{
  "source": "patent US9145435B2",
  "about": "“Urea compounds” (Eli Lilly and Company, priority 2013, dated 2015)",
  "key": {"human SGLT1": {"biological_target": "T1, human SGLT1 (Homo sapiens, UniProt P13866)", "T1 sequence (P13866 1-664)": "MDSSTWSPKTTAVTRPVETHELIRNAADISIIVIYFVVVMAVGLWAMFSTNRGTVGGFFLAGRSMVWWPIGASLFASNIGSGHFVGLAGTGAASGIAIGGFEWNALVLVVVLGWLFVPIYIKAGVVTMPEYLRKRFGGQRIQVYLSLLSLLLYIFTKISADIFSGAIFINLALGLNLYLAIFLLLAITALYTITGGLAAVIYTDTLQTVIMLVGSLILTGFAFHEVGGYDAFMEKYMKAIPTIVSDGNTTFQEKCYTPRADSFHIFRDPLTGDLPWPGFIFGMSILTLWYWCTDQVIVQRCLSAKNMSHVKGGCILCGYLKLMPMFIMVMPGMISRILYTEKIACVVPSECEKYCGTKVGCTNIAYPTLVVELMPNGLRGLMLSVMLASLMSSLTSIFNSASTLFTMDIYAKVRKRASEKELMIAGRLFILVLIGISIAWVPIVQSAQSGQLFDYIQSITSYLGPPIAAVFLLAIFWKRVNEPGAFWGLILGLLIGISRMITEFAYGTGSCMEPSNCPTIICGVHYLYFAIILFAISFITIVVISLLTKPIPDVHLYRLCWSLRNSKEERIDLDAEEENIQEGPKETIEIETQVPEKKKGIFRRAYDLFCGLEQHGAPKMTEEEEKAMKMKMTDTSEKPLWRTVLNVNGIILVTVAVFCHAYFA", "experiment": "Sodium-dependent 14C-AMG uptake assay in CHO-K1 cells expressing human SGLT1", "assay_type": "cell-based", "settings": "n=9", "source_text": "(§1) The cDNA encoding human SGLT1 (slc5a1, NM_000343) and mouse SGLT1 (slc5a1, NM_019810.4) are purchased from Openbiosystems. The cDNA is cloned into pcDNA3.1+ for mammalian expression and is stably transfected into Chinese hamster ovary (CHO)-K1 cells using standard mammalian transfection procedures. An SGLT-expressing sub-clone of each over-expressing cell line is selected based on resistance to neomycin (Geneticin, Invitrogen) and activity in the ^14C-a-methyl-D-glucopyranoside (^14C-AMG) uptake assay (see below). Stable SGLT-expressing cells are maintained using standard cell culture techniques.\n(§2) The SGLT activity is measured as sodium-dependent ^14C-AMG uptake in the above cell lines described as follows. One hundred […] of culture medium containing 30,000 cells are seeded to each well of a 96-well BioCoat poly-D-lysine plate (Becton Dickson) and cultured at 37° C. overnight. The culture medium is aspirated and cells are washed twice with […] of Reaction Buffer (140 mM NaCl, 2 mM KCl, 1 mM CaCl2, MgCl2, and 14 mM N-2-hydroethylpiperrazine-N′-2-ethanesulfonic acid (Hepes), pH 7.5). The excess buffer is tapped out onto paper towels. Thirty-five […] of Reaction Buffer are added to each well. […] After mixing, the scintillation signal in the plate is counted in a MicroBeta (PerkinElmer). […]"}, "mouse SGLT1": {"biological_target": "T2, mouse SGLT1 (Mus musculus, UniProt Q8C3K6)", "T2 sequence (Q8C3K6 1-665)": "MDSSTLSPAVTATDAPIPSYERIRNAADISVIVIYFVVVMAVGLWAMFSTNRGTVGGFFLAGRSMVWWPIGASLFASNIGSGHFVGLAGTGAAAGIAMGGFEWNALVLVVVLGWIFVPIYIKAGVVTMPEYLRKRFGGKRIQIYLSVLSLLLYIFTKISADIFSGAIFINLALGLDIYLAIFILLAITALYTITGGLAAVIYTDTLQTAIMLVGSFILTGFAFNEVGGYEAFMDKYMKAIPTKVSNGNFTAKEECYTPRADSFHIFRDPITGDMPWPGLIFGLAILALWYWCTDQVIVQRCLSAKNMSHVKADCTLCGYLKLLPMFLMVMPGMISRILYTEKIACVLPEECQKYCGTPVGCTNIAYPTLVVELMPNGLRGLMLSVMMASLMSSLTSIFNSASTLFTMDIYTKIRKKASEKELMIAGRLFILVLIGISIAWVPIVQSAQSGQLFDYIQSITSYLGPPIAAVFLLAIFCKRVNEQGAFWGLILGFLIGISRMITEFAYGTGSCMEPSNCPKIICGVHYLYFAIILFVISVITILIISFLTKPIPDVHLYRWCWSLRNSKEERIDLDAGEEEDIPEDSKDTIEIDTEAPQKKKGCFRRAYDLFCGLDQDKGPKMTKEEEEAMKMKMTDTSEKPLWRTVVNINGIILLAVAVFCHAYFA", "experiment": "Sodium-dependent 14C-AMG uptake assay in CHO-K1 cells expressing mouse SGLT1", "assay_type": "cell-based", "settings": "n=6", "source_text": "as §1, §2"}, "C57B1/6 mice": {"tested_on": "C57B1/6 mice", "experiment": "Glucose lowering effects in oral glucose tolerance test (OGTT)", "assay_type": "in vivo, mouse", "settings": "for Glucose 20 Minute / Glucose 40 Minute / Glucose 60 Minute / Baseline Adjusted AUC (glucose) / Glucose Cmax / Glucose Tmax / Glucose 0 Minute: OGTT, 10 mg/kg oral, Mean ± SEM; for Glucose 20 Minute: 20 min after dextrose; for Glucose 40 Minute: 40 min after dextrose; for Glucose 60 Minute: 60 min after dextrose; for Glucose 0 Minute: baseline before 3 g/kg dextrose", "description": "The test compound is formulated by adding a vehicle of 1% hydroxyethylcellulose, 0.25% Tween® 80 w/antifoam 0.05% to preweighed test compound to make a 1 mg/ml solution. The mixture is probe sonicated for approximately 1 minute. A stir bar is added, and the resulting suspension is stirred continuously throughout dosing.\nOne of two sets of single housed C57B1/6 mice are weighed and body weights used to determine study groups (n=5), within a working range of 26-30 g. After grouping, the mice are orally gavaged with 10 ml/kg test compound preparation or vehicle, thirty seconds apart. […] Both sets of mice are then fasted overnight by removing access to food, late afternoon before test day. The following morning, the remaining mice, are weighed and bled (via tail snip) for glucose. Study groups (n=5) are determined using fasted glucose values, within a working range of 80-100 mg/dl. After grouping, the mice are orally gavaged using the same protocol as the previous day.\nAt eight and eighteen hours after each respective compound treatment is started, a baseline blood sample is taken for measuring glucose (from the first animal). The animal is then immediately given an oral dose of 50% dextrose (Hospira®) at 3 g/kg. Blood samples are taken for glucose, exactly thirty seconds apart, by tail vein so that blood is collected in each animal at 20, 40 and 60 minutes after the dextrose dose."}},
  "data": [
    {"smiles": "Cc1cccc2c1c(Cc1ccc(/C=C/CCN3CCCC4(CCN(C(=O)CNC(=O)NCC(C)C)CC4)C3)cc1)cn2[C@@H]1O[C@H](CO)[C@@H](O)[C@H](O)[C@H]1O", "note": "[Example 1, 1-isobutyl-3-[2-[4-[(E)-4-[4-[[4-methyl-1-[(2R,3R,4S,5S,6R)-3,4,5-trihydroxy-6-(hydroxymethyl)tetrahydropyran-2-yl]indol-3-yl]methyl]phenyl]but-3-enyl]-4,9-diazaspiro[5.5]undecan-9-yl]-2-oxo-ethyl]urea]", "values": [
      {"measurement": "IC50", "setting": "human SGLT1", "result": "17.4 ± 14.6", "unit": "nM"},
      {"measurement": "IC50", "setting": "mouse SGLT1", "result": "13.6 ± 7.3", "unit": "nM"},
      {"measurement": "Glucose 20 Minute", "setting": "C57B1/6 mice; 8 hrs post dose", "result": "119.1 ± 11.4", "unit": "mg/dL"},
      {"measurement": "Glucose 40 Minute", "setting": "C57B1/6 mice; 8 hrs post dose", "result": "127.7 ± 8.32", "unit": "mg/dL"},
      {"measurement": "Glucose 60 Minute", "setting": "C57B1/6 mice; 8 hrs post dose", "result": "132.6 ± 8.85", "unit": "mg/dL"},
      {"measurement": "Baseline Adjusted AUC (glucose)", "setting": "C57B1/6 mice; 8 hrs post dose", "result": "2752 ± 507", "unit": "mg/dL"},
      {"measurement": "Glucose Cmax", "setting": "C57B1/6 mice; 8 hrs post dose", "result": "134.7 ± 8.31", "unit": "mg/dL"},
      {"measurement": "Glucose Tmax", "setting": "C57B1/6 mice; 8 hrs post dose", "result": "48 ± 8", "unit": "min"},
      {"measurement": "Glucose 0 Minute", "setting": "C57B1/6 mice; 8 hrs post dose", "result": "70.2 ± 5.47", "unit": "mg/dL"},
      {"measurement": "Glucose 20 Minute", "setting": "C57B1/6 mice; 18 hrs post dose", "result": "116.1 ± 2.71", "unit": "mg/dL"},
      {"measurement": "Glucose 40 Minute", "setting": "C57B1/6 mice; 18 hrs post dose", "result": "130.7 ± 4.47", "unit": "mg/dL"},
      {"measurement": "Glucose 60 Minute", "setting": "C57B1/6 mice; 18 hrs post dose", "result": "124.1 ± 1.42", "unit": "mg/dL"},
      {"measurement": "Baseline Adjusted AUC (glucose)", "setting": "C57B1/6 mice; 18 hrs post dose", "result": "1792 ± 254", "unit": "mg/dL"},
      {"measurement": "Glucose Cmax", "setting": "C57B1/6 mice; 18 hrs post dose", "result": "132.7 ± 3.27", "unit": "mg/dL"},
      {"measurement": "Glucose Tmax", "setting": "C57B1/6 mice; 18 hrs post dose", "result": "48 ± 4.9", "unit": "min"},
      {"measurement": "Glucose 0 Minute", "setting": "C57B1/6 mice; 18 hrs post dose", "result": "87.7 ± 3.36", "unit": "mg/dL"},
      {"measurement": "glucose excursion after oral bolus of 50% dextrose", "setting": "C57B1/6 mice; normal glycemic C57B1/6 mouse, eight or eighteen hours after administration", "result": "decrease"}
    ]}
  ]
}
